Assay results taken from ChEMBL document CHEMBL5291721, “A preclinical secondary pharmacology resource illuminates target-adverse drug reaction associations of marketed drugs” (Nat Commun, 2023).

Experiments:
[1] = molecular target: T1, Alpha-2B adrenergic receptor (Homo sapiens, UniProt P18089)
T1 sequence (P18089 whole entry): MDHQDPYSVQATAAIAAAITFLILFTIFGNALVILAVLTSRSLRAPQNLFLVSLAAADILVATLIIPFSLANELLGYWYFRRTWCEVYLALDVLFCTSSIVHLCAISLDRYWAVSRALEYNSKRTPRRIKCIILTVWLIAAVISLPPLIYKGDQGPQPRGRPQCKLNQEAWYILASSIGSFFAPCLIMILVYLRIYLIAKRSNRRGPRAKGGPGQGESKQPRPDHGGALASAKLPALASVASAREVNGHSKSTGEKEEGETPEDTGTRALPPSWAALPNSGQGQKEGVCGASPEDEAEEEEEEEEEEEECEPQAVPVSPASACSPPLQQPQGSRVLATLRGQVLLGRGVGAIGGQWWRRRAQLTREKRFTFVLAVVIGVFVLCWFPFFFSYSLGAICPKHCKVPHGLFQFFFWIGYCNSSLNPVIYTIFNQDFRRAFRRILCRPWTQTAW

[2] = molecular target: Beta-2 adrenergic receptor (Homo sapiens, UniProt P07550)
Beta-2 adrenergic receptor, sequence (P07550 whole entry): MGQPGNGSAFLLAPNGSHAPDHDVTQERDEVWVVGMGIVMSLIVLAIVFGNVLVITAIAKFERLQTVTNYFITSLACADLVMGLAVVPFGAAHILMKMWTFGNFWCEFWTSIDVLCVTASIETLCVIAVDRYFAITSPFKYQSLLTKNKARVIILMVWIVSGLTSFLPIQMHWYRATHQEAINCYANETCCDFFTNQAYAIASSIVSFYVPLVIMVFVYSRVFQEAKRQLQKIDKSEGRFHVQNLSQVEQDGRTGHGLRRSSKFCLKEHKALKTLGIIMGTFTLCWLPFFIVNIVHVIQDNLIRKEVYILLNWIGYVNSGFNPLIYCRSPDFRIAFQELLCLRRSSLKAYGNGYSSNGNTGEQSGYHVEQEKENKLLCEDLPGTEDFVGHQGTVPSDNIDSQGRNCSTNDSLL

[3] = molecular target: T2, Gastrin/cholecystokinin type B receptor (Homo sapiens, UniProt P32239)
T2 sequence (P32239 whole entry): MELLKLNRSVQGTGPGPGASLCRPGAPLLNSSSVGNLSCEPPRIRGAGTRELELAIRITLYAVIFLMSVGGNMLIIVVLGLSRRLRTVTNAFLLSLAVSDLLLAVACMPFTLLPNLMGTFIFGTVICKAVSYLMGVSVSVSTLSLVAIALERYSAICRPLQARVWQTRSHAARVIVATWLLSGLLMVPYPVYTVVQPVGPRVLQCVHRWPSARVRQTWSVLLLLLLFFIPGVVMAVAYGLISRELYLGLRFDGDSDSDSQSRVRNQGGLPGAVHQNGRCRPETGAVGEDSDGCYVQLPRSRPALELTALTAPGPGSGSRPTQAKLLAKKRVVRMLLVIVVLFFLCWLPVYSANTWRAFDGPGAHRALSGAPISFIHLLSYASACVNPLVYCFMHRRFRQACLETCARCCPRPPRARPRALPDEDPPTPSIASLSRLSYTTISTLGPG

Cannabinoid receptor 1 [4] = molecular target: T3, Cannabinoid receptor 1 (Homo sapiens, UniProt P21554); format: functional, cell-based
T3 sequence (P21554 whole entry): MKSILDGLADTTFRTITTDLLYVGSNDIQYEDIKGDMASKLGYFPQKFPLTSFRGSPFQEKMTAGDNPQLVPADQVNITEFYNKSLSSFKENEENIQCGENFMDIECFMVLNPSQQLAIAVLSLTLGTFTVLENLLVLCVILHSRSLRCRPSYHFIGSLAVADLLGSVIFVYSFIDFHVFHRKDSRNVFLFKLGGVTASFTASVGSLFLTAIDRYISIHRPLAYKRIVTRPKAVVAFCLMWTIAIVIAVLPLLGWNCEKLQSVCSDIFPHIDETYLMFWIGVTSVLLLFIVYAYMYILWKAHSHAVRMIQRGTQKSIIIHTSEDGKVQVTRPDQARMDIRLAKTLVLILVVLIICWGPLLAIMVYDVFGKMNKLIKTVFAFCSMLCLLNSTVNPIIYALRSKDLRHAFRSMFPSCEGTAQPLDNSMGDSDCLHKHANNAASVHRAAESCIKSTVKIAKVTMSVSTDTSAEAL

Cannabinoid receptor 1 [5] = molecular target: T3, Cannabinoid receptor 1; format: functional, cell-based; remark: listed apart in the source
Estrogen receptor = molecular target: T4, Estrogen receptor (Homo sapiens, UniProt P03372)
T4 sequence (P03372 whole entry): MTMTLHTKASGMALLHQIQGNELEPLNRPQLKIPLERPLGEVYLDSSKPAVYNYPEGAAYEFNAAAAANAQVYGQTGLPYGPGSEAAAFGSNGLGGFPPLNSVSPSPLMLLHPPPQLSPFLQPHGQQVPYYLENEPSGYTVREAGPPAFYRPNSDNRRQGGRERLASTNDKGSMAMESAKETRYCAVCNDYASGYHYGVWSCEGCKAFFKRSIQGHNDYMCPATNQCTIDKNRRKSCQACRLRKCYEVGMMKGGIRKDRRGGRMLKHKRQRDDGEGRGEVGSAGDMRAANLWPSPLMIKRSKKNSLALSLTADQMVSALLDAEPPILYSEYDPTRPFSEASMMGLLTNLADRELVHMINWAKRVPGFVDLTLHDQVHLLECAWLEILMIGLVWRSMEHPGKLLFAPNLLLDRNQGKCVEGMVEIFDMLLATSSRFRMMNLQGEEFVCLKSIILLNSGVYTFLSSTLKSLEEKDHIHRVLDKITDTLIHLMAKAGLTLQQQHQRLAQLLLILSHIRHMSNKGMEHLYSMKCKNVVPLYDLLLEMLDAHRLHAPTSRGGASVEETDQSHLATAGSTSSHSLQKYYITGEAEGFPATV

[6] = molecular target: 5-hydroxytryptamine receptor 2A (Homo sapiens, UniProt P28223); format: functional, cell-based
5-hydroxytryptamine receptor 2A, sequence (P28223 whole entry): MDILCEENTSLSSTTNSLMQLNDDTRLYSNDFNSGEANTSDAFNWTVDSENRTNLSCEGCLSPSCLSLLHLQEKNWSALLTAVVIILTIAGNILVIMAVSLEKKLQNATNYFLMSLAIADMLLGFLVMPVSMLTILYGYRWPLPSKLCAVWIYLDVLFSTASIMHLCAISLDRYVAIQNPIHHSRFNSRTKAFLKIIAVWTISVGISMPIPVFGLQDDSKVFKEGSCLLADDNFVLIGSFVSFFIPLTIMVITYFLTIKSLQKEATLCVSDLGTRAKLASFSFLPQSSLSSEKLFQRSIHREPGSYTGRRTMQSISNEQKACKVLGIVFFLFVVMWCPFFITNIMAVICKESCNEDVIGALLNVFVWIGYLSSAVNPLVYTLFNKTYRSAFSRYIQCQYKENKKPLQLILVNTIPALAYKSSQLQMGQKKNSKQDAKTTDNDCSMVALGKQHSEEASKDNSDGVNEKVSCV

[7] = molecular target: T5, Equilibrative nucleoside transporter 1 (Homo sapiens, UniProt Q99808)
T5 sequence (Q99808 whole entry): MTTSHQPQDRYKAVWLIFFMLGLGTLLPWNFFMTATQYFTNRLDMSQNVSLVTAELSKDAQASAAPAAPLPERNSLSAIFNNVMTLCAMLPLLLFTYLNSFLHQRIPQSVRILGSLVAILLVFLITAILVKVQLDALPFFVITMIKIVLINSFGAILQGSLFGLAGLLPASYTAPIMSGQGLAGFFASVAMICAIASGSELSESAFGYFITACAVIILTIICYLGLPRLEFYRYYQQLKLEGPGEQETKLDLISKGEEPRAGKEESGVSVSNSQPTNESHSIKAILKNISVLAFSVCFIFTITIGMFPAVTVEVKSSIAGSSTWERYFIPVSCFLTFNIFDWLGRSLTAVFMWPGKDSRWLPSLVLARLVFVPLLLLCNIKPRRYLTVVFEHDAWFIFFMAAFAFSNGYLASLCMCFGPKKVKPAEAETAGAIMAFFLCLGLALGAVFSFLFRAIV

[8] = molecular target: Sodium-dependent serotonin transporter (Homo sapiens, UniProt P31645)
Sodium-dependent serotonin transporter, sequence (P31645 whole entry): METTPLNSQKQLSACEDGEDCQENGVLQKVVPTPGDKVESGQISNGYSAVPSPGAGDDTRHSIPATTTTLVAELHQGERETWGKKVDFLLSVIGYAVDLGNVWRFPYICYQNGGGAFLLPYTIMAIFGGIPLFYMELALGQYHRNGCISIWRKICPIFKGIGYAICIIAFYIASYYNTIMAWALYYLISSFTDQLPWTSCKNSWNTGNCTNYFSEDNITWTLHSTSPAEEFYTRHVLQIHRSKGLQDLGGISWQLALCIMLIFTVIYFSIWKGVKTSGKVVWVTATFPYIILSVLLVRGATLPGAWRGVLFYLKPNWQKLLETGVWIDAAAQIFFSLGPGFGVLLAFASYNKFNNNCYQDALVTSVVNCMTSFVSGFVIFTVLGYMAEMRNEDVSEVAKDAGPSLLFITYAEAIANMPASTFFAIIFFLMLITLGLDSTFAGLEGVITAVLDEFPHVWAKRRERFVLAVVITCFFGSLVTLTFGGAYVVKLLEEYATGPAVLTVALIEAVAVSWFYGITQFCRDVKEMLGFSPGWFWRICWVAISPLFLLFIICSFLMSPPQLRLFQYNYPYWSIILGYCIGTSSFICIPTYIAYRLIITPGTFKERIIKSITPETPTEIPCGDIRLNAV

Histamine H3 receptor = Histamine H3 receptor (Homo sapiens, UniProt Q9Y5N1)
Histamine H3 receptor, sequence (Q9Y5N1 whole entry): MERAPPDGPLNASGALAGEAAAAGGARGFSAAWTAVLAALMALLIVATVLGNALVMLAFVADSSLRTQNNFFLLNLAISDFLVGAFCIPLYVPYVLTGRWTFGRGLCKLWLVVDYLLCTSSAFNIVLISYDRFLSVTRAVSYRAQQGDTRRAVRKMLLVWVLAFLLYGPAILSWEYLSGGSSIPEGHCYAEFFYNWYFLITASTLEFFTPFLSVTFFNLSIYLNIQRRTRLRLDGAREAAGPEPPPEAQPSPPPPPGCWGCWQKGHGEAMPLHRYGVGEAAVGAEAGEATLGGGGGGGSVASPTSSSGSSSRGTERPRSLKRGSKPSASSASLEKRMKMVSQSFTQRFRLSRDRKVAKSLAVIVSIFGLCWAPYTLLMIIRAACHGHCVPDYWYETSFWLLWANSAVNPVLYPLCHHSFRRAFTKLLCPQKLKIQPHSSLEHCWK

Measured: AC50
Further: assay procedure not described here.

C[C@@H]1CCC[C@H](C)N1NC(=O)c1ccc(Cl)c(S(N)(=O)=O)c1 [CLOPAMIDE]
> 30 µM: all assays above

COc1cccc(N(C)C(=S)Oc2ccc3c(c2)CCCC3)n1 [LIRANAFTATE]
> 30 µM: all assays above
